The text below walks through data of ChEMBL document CHEMBL4373715, “Discovery and Biological Evaluations of Halogenated 2,4-Diphenyl Indeno[1,2-b]pyridinol Derivatives as Potent Topoisomerase IIα-Targeted Chemotherapeutic Agents for Breast Cancer” (J Med Chem, 2019).

The subject of one test is HeLa. Kind of test: Antiproliferative activity against human HeLa cells measured after 72 hrs by EZ-Cytox assay. The format is functional, cell-based.
For test [1], the target named is T1, DNA topoisomerase 1 (Homo sapiens) (UniProt P11387).
T1 sequence (whole entry): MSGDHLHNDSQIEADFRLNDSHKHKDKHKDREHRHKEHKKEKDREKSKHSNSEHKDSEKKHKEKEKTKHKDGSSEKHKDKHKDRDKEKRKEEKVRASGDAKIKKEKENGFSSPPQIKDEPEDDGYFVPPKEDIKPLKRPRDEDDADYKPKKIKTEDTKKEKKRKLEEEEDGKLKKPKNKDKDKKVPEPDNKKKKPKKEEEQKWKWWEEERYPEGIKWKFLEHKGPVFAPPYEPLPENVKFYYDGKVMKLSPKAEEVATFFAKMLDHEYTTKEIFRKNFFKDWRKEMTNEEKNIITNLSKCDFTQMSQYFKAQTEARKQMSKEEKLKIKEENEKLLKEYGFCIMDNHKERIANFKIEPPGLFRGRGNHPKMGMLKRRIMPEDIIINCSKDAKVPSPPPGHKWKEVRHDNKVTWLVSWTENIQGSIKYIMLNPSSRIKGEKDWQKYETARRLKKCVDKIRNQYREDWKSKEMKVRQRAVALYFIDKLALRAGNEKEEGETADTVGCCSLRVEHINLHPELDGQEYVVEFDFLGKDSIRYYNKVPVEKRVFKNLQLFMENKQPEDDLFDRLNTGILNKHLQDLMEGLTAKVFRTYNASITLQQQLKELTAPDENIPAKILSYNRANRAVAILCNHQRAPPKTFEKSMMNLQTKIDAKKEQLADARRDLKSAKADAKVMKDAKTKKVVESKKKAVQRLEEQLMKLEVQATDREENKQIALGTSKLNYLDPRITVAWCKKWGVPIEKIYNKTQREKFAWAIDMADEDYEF
As to the kind of experiment: Inhibition of recombinant human topoisomerase 1-mediated relaxation of supercoiled pBR322 DNA at 100 uM measured after 30 mins by ethidium bromide staining based agarose gel electrophoresis relative to control.

The next test concerns DU-145. Kind of test: Antiproliferative activity against human DU145 cells measured after 72 hrs by EZ-Cytox assay. It is filed as functional, cell-based. The settings on record: DU-145, 72 h.
The target in test [2] is DNA topoisomerase 2-alpha (Homo sapiens) (UniProt P11388). As to the kind of experiment: Inhibition of recombinant human topoisomerase 2alpha-mediated relaxation of supercoiled pBR322 DNA at 20 uM measured after 30 mins by ethidium bromide staining based agarose gel electrophoresis relative to control.
DNA topoisomerase 2-alpha (Homo sapiens), sequence (P11388 whole entry): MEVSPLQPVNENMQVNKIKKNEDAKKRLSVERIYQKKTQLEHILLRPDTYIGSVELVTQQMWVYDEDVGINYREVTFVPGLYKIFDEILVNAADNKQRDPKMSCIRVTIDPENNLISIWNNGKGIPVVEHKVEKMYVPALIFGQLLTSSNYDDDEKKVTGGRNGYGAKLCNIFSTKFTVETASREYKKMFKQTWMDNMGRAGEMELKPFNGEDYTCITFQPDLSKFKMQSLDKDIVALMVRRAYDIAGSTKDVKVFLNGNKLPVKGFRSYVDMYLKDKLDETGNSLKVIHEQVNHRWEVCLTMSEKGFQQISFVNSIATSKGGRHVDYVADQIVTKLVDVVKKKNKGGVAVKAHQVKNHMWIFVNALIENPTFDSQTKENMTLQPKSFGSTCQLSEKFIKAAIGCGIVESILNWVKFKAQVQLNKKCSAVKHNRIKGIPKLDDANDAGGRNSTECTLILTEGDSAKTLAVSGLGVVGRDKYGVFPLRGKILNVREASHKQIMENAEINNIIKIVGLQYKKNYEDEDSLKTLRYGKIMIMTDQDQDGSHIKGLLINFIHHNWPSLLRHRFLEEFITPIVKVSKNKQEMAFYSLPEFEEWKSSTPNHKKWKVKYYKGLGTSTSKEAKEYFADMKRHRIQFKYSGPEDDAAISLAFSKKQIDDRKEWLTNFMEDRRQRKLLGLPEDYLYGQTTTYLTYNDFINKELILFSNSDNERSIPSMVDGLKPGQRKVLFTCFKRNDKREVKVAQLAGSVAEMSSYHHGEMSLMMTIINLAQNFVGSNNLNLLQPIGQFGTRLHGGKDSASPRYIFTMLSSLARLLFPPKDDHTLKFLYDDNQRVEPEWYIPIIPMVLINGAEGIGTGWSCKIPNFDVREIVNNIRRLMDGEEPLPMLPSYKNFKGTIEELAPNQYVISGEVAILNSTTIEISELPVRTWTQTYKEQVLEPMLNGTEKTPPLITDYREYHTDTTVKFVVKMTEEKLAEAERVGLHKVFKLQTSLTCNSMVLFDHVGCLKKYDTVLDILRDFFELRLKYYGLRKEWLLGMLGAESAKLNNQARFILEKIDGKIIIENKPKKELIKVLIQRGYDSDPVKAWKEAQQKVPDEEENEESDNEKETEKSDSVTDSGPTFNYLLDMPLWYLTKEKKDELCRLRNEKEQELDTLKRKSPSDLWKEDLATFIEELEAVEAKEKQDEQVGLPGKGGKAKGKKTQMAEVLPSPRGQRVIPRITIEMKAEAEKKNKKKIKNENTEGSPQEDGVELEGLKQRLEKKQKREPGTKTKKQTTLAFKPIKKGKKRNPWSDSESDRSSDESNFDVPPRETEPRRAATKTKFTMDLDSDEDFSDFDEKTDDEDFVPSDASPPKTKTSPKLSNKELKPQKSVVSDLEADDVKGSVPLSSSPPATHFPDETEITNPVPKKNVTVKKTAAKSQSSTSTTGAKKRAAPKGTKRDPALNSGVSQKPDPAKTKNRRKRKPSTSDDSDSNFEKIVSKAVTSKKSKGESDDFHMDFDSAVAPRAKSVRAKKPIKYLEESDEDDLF
The subject of a further test is HCT-15. Kind of test: Antiproliferative activity against human HCT15 cells measured after 72 hrs by EZ-Cytox assay. The settings on record: HCT-15, 72 h. It is filed as functional, cell-based.
Test [3] relates to T47D. As to the kind of experiment: Antiproliferative activity against human T47D cells measured after 72 hrs by EZ-Cytox assay. The format is functional, cell-based.
Test [4] deals with T1, DNA topoisomerase 1 (Homo sapiens). As to the kind of experiment: Inhibition of recombinant human topoisomerase 1-mediated relaxation of supercoiled pBR322 DNA at 20 uM measured after 30 mins by ethidium bromide staining based agarose gel electrophoresis relative to control.
In test [5] the target is DNA topoisomerase 2-alpha (Homo sapiens) (UniProt P11388). Kind of test: Inhibition of recombinant human topoisomerase 2alpha-mediated relaxation of supercoiled pBR322 DNA at 100 uM measured after 30 mins by ethidium bromide staining based agarose gel electrophoresis relative to control.
The next test deals with HCC70. As to the kind of experiment: Antiproliferative activity against human HCC70 cells measured after 72 hrs by Ez-cytox assay. It is filed as functional, cell-based. The settings on record: HCC70, 72 h.
The test system of another test is MDA-MB-231. Kind of test: Antiproliferative activity against human MDA-MB-231 cells measured after 72 hrs by Ez-cytox assay. It is filed as functional, cell-based. The settings on record: MDA-MB-231, 72 h.
Another test deals with MDA-MB-436. Kind of test: Antiproliferative activity against human MDA-MB-436 cells measured after 72 hrs by Ez-cytox assay. The format is functional, cell-based. The settings on record: MDA-MB-436, 72 h.
In test [6] the target is DNA topoisomerase 2-alpha (Homo sapiens) (UniProt P11388). Kind of test: Poison activity at topoisomerase-2 alpha in human T47D cells assessed as stabilization of enzyme-DNA cleavage complex by measuring reduction in topo-2alpha level at 50 uM measured after 2 hrs by Western blot analysis. The format is cell-based. (In general: In western blotting, separated proteins are transferred to a membrane and probed.)

Test [7] has as its system T47D. Kind of test: Induction of DNA damage in human T47D cells at 5 to 10 uM measured after 24 hrs by comet assay. It is filed as functional, cell-based.
The subject of a further test is Calf thymus DNA. As to the kind of experiment: Inhibition of EtBr binding to calf thymus DNA measured after 30 mins by fluorescence assay. The settings on record: Bos taurus. The format is nucleic-acid assay.

pIC50: −log10 of the molar value. Structures can show the parent of a compound that is named as a salt. Activity calls are given as the source filed them. No cut-off for these calls is given here.

`Oc1ccc(-c2cc(-c3ccccc3Cl)c3c(n2)-c2cccc(O)c2C3)cc1`: the pIC50 is 5.43 in the test with HeLa, 5.23 in the test with DU-145, 5.62 in the test with HCT-15 and 5.76 in the test with T47D [3]. In addition, the inhibition in [1] worked out at 62.9%; in test [2], 13%; in [4], 0%; in test [5], 97%.

With `Oc1ccc(-c2cc(-c3ccc(C(F)(F)F)cc3)nc3c2Cc2c(O)cccc2-3)cc1`, the pIC50 was 5.18 in the test on HeLa, 5.68 with DU-145, less than 4.30 in the test with HCT-15 and 5.70 in the test on T47D [3]. Also, the inhibition is 32.8% in test [1], 11.1% in test [2], 0% in [4] and 91.3% in test [5].

For the molecule `Oc1cccc(-c2cc(-c3ccccc3Cl)c3c(n2)-c2ccc(O)cc2C3)c1`, the pIC50 was 5.19 in the test on HeLa, 5.63 in the test on DU-145, 5.42 in the test on HCT-15 and 5.55 in the test with T47D [3]. Also, the inhibition in test [1] was determined as 77.4%; in test [2], 20%; in [4], 6.3%; in test [5], 91.3%.

For the molecule `Oc1cccc(-c2cc(-c3ccccc3Cl)c3c(n2)-c2c(O)cccc2C3)c1`, the pIC50 in the test on HeLa is 5.44; in the test with DU-145, 5.49; in the test with HCT-15 it was 5.61; in the test with T47D [3] it was 5.60. In addition, the inhibition is 79.3% in test [1], 3.6% in [2], 0.2% in [4] and 80.2% in [5].

`Oc1cccc(-c2cc(-c3ccccc3C(F)(F)F)nc3c2Cc2c(O)cccc2-3)c1`: the pIC50 in the test with HeLa was 5.42; with DU-145 it was 5.74; with HCT-15, 5.47; with T47D [3], 5.84. Moreover, the inhibition in test [1] was 65.7%; in test [2], 2.1%; in [4], 0%; in test [5], 89.5%.

Regarding `Oc1ccc(-c2cc(-c3ccc(C(F)(F)F)cc3)nc3c2Cc2ccc(O)cc2-3)cc1`, the pIC50 with HeLa was 5.26; in the test on DU-145, 5.53; with HCT-15 it was 5.30; in the test with T47D [3], 5.87. Further, the inhibition in [1] came to 100%; in test [2] it was 0.5%; in [4] it was 0%; in test [5], 83.1%.

Consider `Oc1ccc(-c2cc(-c3ccc(C(F)(F)F)cc3)nc3c2Cc2cc(O)ccc2-3)cc1`, for which the pIC50 is 5.32 with HeLa, 5.94 with DU-145, 5.58 in the test with HCT-15 and 5.72 with T47D [3]. The inhibition in [1] came out at 87.4%; in test [2] it was 1.1%; in test [4], 0%; in test [5], 83.2%.

For `CC[C@@]1(O)C(=O)OCc2c1cc1n(c2=O)Cc2cc3ccccc3nc2-1` [CAMPTOTHECIN], the pIC50 in the test with HeLa was 5.86 to 6.30; with HCC70 it was 7.36; in the test with DU-145, 6.09 to 7.30; with HCT-15 it was 6.46 to 7.31; in the test with MDA-MB-231, 4.62; in the test on T47D [3], 5.70 to 6.60. In the test with MDA-MB-436, the pIC50 is 4.50.

Turning to `COc1cc([C@@H]2c3cc4c(cc3[C@@H](O[C@@H]3O[C@@H]5CO[C@@H](C)O[C@H]5[C@H](O)[C@H]3O)[C@H]3COC(=O)[C@H]23)OCO4)cc(OC)c1O` [ETOPOSIDE], the pIC50 is 5.01 to 5.38 in the test on HeLa; less than 4.30 in the test with HCC70 (read-out: IC50); 5.35 to 5.94 with DU-145; 5.16 to 5.90 in the test on HCT-15; less than 4.30 with MDA-MB-231; 5.26 to 5.79 in the test with T47D [3]. The molecule also gave a pIC50 in the test on MDA-MB-436 of 4.40. The outcome (in test [6]; in the test on T47D [7]) was Active.

For `COc1cc(NS(C)(=O)=O)ccc1Nc1c2ccccc2nc2ccccc12`, the inhibition entry in the test with Calf thymus DNA was “Dose-dependent effect”.

Regarding `Oc1ccc(-c2cc(-c3cccc(C(F)(F)F)c3)nc3c2Cc2cc(O)ccc2-3)cc1`, the pIC50 in the test on HeLa is 5.34; with DU-145 it was 5.72; in the test with HCT-15, 5.46; with T47D [3], 5.84. Besides, the inhibition in [1] came out at 55.8%; in test [2], 4.6%; in test [4], 0.3%; in test [5], 88.7%.

In the case of `COc1cccc2c1C(=O)c1c(O)c3c(c(O)c1C2=O)C[C@@](O)(C(=O)CO)C[C@@H]3O[C@H]1C[C@H](N)[C@H](O)[C@H](C)O1` [DOXORUBICIN HYDROCHLORIDE], the pIC50 is 5.34 to 6.10 in the test on HeLa; 5.84 in the test on HCC70 (read-out: IC50); 5.53 to 6.06 in the test with DU-145; 5.69 to 6.13 with HCT-15; 5.29 in the test with MDA-MB-231; 5.82 to 6.47 in the test on T47D [3]. For the same molecule, the pIC50 with MDA-MB-436 is 5.69.

As for `Oc1ccc2c(c1)-c1nc(-c3ccccc3O)cc(-c3ccccc3Cl)c1C2`, the pIC50 in the test with HeLa was less than 4.30; in the test with DU-145, 5.40; in the test with HCT-15 it was 5.10; in the test with T47D [3] it was 5.48. The inhibition in test [1] is 59.1%; in test [2], 38.2%; in test [4], 14.8%; in [5], 74.1%.

Consider `Oc1cccc(-c2cc(-c3ccccc3Cl)c3c(n2)-c2cc(O)ccc2C3)c1`, for which the pIC50 was 5.30 in the test with HeLa, 5.69 with DU-145, 5.60 in the test on HCT-15 and 5.54 in the test on T47D [3]. Also, the inhibition stood at 55.9% in test [1], 13.8% in test [2], 6.3% in test [4] and 93.2% in test [5].

Usually pIC50 stands for the negative decadic logarithm of the IC50, by convention in mol/L. Usually inhibition stands for the percentage by which the read-out fell short of the control.
